Results as given in the NIST ThermoML archive (doi:10.1021/je700260f).
Numbers after ± are expanded uncertainties.

Details: Liquid, Vibrating tube method

FC(C(F)(F)F)C(F)(F)F [1,1,1,2,3,3,3-heptafluoropropane]
Details | mass density [kg/m3]
313.15 K, 33848 kPa | 1503.2 ± 1.7
313.15 K, 33888 kPa | 1503.3 ± 1.7
313.15 K, 33928 kPa | 1503.5 ± 1.7
313.15 K, 33981 kPa | 1503.8 ± 1.7
313.15 K, 34027 kPa | 1503.8 ± 1.7
313.15 K, 34060 kPa | 1503.9 ± 1.7
313.15 K, 34100 kPa | 1504 ± 1.7
313.15 K, 34136 kPa | 1504.1 ± 1.7
313.15 K, 34171 kPa | 1504.4 ± 1.7
313.15 K, 34201 kPa | 1504.5 ± 1.7
313.15 K, 34232 kPa | 1504.6 ± 1.7
313.15 K, 34269 kPa | 1504.6 ± 1.7
313.15 K, 34305 kPa | 1504.8 ± 1.7
313.15 K, 34336 kPa | 1504.7 ± 1.7
313.15 K, 34374 kPa | 1505 ± 1.7
313.15 K, 34408 kPa | 1505.1 ± 1.7
313.15 K, 34430 kPa | 1505.2 ± 1.7
313.15 K, 34451 kPa | 1505.2 ± 1.7
313.15 K, 34461 kPa | 1505.2 ± 1.7
313.15 K, 34473 kPa | 1505.2 ± 1.7
313.15 K, 34482 kPa | 1505.4 ± 1.7
313.15 K, 34489 kPa | 1505.4 ± 1.7
313.16 K, 1420 kPa | 1328.8 ± 1.5
313.16 K, 1448 kPa | 1329.3 ± 1.5
313.16 K, 9648 kPa | 1395.4 ± 1.5
313.16 K, 9676 kPa | 1395.6 ± 1.5
313.16 K, 9701 kPa | 1395.7 ± 1.5
313.16 K, 9733 kPa | 1395.9 ± 1.5
313.16 K, 9768 kPa | 1396.1 ± 1.5
313.16 K, 9796 kPa | 1396.4 ± 1.5
313.16 K, 10034 kPa | 1397.9 ± 1.5
313.16 K, 11599 kPa | 1407.5 ± 1.5
313.16 K, 11650 kPa | 1407.8 ± 1.5
313.16 K, 16202 kPa | 1432.4 ± 1.6
313.16 K, 16267 kPa | 1432.9 ± 1.6
313.16 K, 16535 kPa | 1434.1 ± 1.6
313.16 K, 16676 kPa | 1434.8 ± 1.6
313.16 K, 16775 kPa | 1435.3 ± 1.6
313.16 K, 21124 kPa | 1455.4 ± 1.6
313.16 K, 21173 kPa | 1455.5 ± 1.6
313.16 K, 23260 kPa | 1464.4 ± 1.6
313.16 K, 23309 kPa | 1464.6 ± 1.6
313.16 K, 23346 kPa | 1464.7 ± 1.6
313.16 K, 25084 kPa | 1471.9 ± 1.6
313.16 K, 25125 kPa | 1471.9 ± 1.6
313.16 K, 25173 kPa | 1472.1 ± 1.6
323.13 K, 960 kPa | 1272.4 ± 1.5
323.13 K, 990 kPa | 1272.7 ± 1.5
323.13 K, 1310 kPa | 1277.3 ± 1.5
323.13 K, 1540 kPa | 1280.5 ± 1.5
323.13 K, 1600 kPa | 1281.2 ± 1.5
323.13 K, 1800 kPa | 1283.9 ± 1.5
323.13 K, 1820 kPa | 1284.2 ± 1.5
323.13 K, 1840 kPa | 1284.5 ± 1.5
323.13 K, 2040 kPa | 1287.1 ± 1.5
323.13 K, 2060 kPa | 1287.3 ± 1.5
323.13 K, 2080 kPa | 1287.6 ± 1.5
323.13 K, 2100 kPa | 1287.9 ± 1.5
323.13 K, 2120 kPa | 1288.2 ± 1.5
323.13 K, 2140 kPa | 1288.3 ± 1.5
323.13 K, 2160 kPa | 1288.7 ± 1.5
323.13 K, 2180 kPa | 1288.9 ± 1.5
323.13 K, 2190 kPa | 1289.2 ± 1.5
323.13 K, 2220 kPa | 1289.2 ± 1.5
323.13 K, 2230 kPa | 1289.4 ± 1.5
323.13 K, 2250 kPa | 1289.8 ± 1.5
323.13 K, 2270 kPa | 1290 ± 1.5
323.13 K, 3000 kPa | 1298.9 ± 1.5
323.13 K, 3030 kPa | 1299.3 ± 1.5
323.13 K, 3090 kPa | 1299.8 ± 1.5
323.13 K, 3110 kPa | 1300.2 ± 1.5
323.13 K, 3130 kPa | 1300.3 ± 1.5
323.13 K, 3150 kPa | 1300.6 ± 1.5
323.13 K, 3180 kPa | 1300.8 ± 1.5
323.13 K, 3200 kPa | 1301.3 ± 1.5
323.13 K, 3230 kPa | 1301.4 ± 1.5
323.13 K, 3250 kPa | 1301.7 ± 1.5
323.13 K, 3270 kPa | 1301.9 ± 1.5
323.13 K, 3290 kPa | 1302.2 ± 1.5
323.13 K, 4770 kPa | 1317.9 ± 1.5
323.13 K, 4790 kPa | 1318.1 ± 1.5
323.13 K, 4820 kPa | 1318.3 ± 1.5
323.13 K, 4850 kPa | 1318.7 ± 1.5
323.13 K, 4880 kPa | 1318.9 ± 1.5
323.13 K, 4900 kPa | 1319.2 ± 1.5
323.13 K, 4920 kPa | 1319.4 ± 1.5
323.13 K, 6440 kPa | 1333.7 ± 1.5
323.13 K, 6489 kPa | 1334.1 ± 1.5
323.13 K, 6508 kPa | 1334 ± 1.5
323.13 K, 6533 kPa | 1334.5 ± 1.5
323.13 K, 6605 kPa | 1335.1 ± 1.5
323.13 K, 6623 kPa | 1335.3 ± 1.5
323.13 K, 6650 kPa | 1335.4 ± 1.5
323.13 K, 6668 kPa | 1335.7 ± 1.5
323.13 K, 6696 kPa | 1335.8 ± 1.5
323.13 K, 6716 kPa | 1336 ± 1.5
323.13 K, 6734 kPa | 1336.3 ± 1.5
323.13 K, 6759 kPa | 1336.4 ± 1.5
323.13 K, 7026 kPa | 1338.8 ± 1.5
323.14 K, 920 kPa | 1271.8 ± 1.5
323.14 K, 940 kPa | 1272.1 ± 1.5
323.14 K, 1020 kPa | 1273.1 ± 1.5
